Measurements reported in US5955485A, “Use of fused benzothiazoles as neuroprotectants” (Janssen Pharmaceutica, N.V., priority 1995, dated 1999).
Values joined by “and” are separate entries in the source; they are usually repeats but may differ in a detail not shown here. Identical values can stand only once. Like-named read-outs stand apart in the source and are kept apart here.

What was measured:
[1] = test system: Human fibroblasts [strain NS]; assay: Protection of human fibroblasts against glutathione depletion (survival in cystine/methionine deficient EMEM, 48 hr); format: cell-based; details: Fibroblast, read-out: EC90 (concentration at which more than 90% of the fibroblasts survive 48 hours after treatment)
Protocol: Human fibroblasts [strain NS] were cultured in cystine/methionine deficient EMEM for 48 hr. In control cultures not receiving any treatment, all cells became necrotic. Cell death was scored by phase contrast microscopy. Table 1 summarizes the EC90 values observed with the compounds of formula (I), i.e. the concentration at which more than 90% of the fibroblasts survive 48 hours after treatment with a compound of formula (I).

C6 glioma cells [2] = assay: Glutathione depletion-induced cell toxicity in C6 glioma cells (LDH release; protection); details: for IC50 / cytotoxicity at 10000 µM: C6 glioma; for IC50: read-out: Protection IC50; for cytotoxicity at 10000 µM: Rattus norvegicus
Protocol: Cultures were maintained at 37° C. in an air/5~10% CO2, water saturated atmosphere.
After 8-24 hr, the cultures were switched to culture medium in the absence or presence of the GSH depleting compound glutamate (10 mM).

[3] = test system: primary neuronal (embryonic hippocampal) cultures; assay: Survival-rescue of primary embryonic hippocampal cultures in vitE depleted medium (cytoplasmic LDH activity); format: cell-based, rat; details: for EC50: Rattus norvegicus, mean ± SD (number of dose responses), 50% of survival in vitE supplemented medium
Protocol: Primary embryonic hippocampal cultures were prepared essentially as described previously (Pauwels, P, Van Aschouw, H. P., Peeters, L., Moeremans, M., Leysen, J. E. 1992. Chronic treatment with sabeluzole protects cultured rat brain neurons from the neurotoxic effects of excitatory amino acids. Synapse, 12:271-280). Hippocampal formations of rats at embryonic day 17 were dissected and dissociated in 0.05% trypsin, 0.1 mg/ml DNase I in DMEM (Dulbecco Modified Eagle Medium). Heat-inactivated horse serum (HS) was added to a concentration of 4%, and the cells were centrifuged, washed with DMEM, and resuspended in DMEM/Ham's F12 (3:1) containing 10% HS. The cells were plated at a density of 4×10^5 cells/cm^2 in poly L-lysine (0.001%) pre-coated multiwell-24 plates. On day 1 in culture, the medium was changed to chemically defined CDM-R12 medium (DMEM-HEPES/Ham's F12 (3:1) containing 0.26% bovine serum albumin, 30 nM sodium selenite, 3 nM 3,3',5 triiodo-L-thyronine, 0.35 μM retinol, 0.3 μM retinol acetate, 2.3 μM DL-a-tocopherol, 2.1 μM DL-α-tocopherol acetate, […] linolenic acid, 3.6 μM linoleic acid, 0.125% human transferrin, 20 nM progesterone, 57.7 nM corticosterone, 49 U/l insulin, 0.4 μM biotin, 10 μM L-carnitine, 83 μM D(+)-galactose, 3.3 μM glutathione, 10 μM ethanolamine, 0.1 mM putrescine; Romijn, H. J., van Huizen, F., Wolters, P. S. 1984. Towards an improved serum-free, chemically defined medium for long-term culturing of cerebral cortex tissue. Neurosci. Behav. Rev., 8:301-334), either with (control) or without DL-α-tocopherol (VitE) and DL-α-tocopherol acetate, in the presence or absence of test compound. […] Addition of compounds could rescue the cultures. Culture survival was measured by means of cytoplasmic LDH activity. The EC50 for survival-rescue in vitE depleted cultures refers to the concentration of the compound required to restore culture survival to 50% of the survival seen for the culture grown in vitE supplemented medium. Seven concentrations of each compound were tested in triplicate, the number of independent experiments is indicated in the table, and the mean EC50 -value ± SD was calculated (Table 2).
Primary neuronal cultures depend on the presence of the antioxidant vitE in the culture medium for survival in vitro. When vitE depleted medium is used to grow the cultures, survival drops to ±20% of control. Compounds with antioxidative properties are able to complement the lack of vitE, and as such can when added to the culture medium, rescue vitE devoid cultures. Several derivatives of formula (I) were tested at 10^-7 M and 10^-6 M in the vitE depletion test on primary neuronal cultures, and were all able to rescue survival of vitE depleted cultures to a certain extent (Table 2).

C6 glioma cells [4] = assay: Glutathione depletion-induced intracellular peroxides in C6 glioma cells (C-DCDHF fluorescence); format: cell-based; details: for Level of intracellular peroxides: 1 μM compound + glutamate 10 mM, n ≥ 3 (Table 5); for Level of intracellular peroxides / Intracellular peroxides: mean ± SEM; for Intracellular peroxides: glutamate 10 mM alone, n = 5 (Table 3)
Protocol: Fluorescence measurement of intracellular peroxides: Formation of intracellular peroxides was detected using 6-carboxy-2',7'-dichlorodihydrofluorescin diacetate, di(acetoxymethyl ester) (C-DCDHF, Molecular Probes). C-DCDHF was dissolved in DMSO at a concentration of 10 mM and stored at -70° C. under nitrogen. After exposure of the culture to 10 mM glutamate for 14~20 hr, the cells were loaded with 100 μM fluorophore for one hour at 37° C. Medium was aspirated off, PBS was added to the cells, and plates were read in a Cytofluor II micro plate fluorescence reader (PerSeptive Biosystems).Excitation and emission wavelength were selected with a 485/530 nm filter pair. Fluorescence intensity, expressed in relative fluorescence units (rfu)/μg cellular protein was used as index of intracellular peroxides.

C6 glioma cells [5] = assay: GSH content in C6 glioma cell culture; format: cell-based; details: for GSH level: mean ± SEM, n = 3
Excerpt: The GSH content was deduced from a standard curve ranging from 0.2 to 2 nmol commercial GSH per test (ΔA/min plotted versus concentration).

Plasma levels = format: in vivo

SMILES	EC90 [1] [nM]	IC50 (C6 glioma cells [2]) [nM]	EC50 [3] [nM]	Level of intracellular peroxides (C6 glioma cells [4]) [rfu/μg protein]	also measured
CC(C)Nc1ccc2c(c1)SC1=NCCN12 [Compound 5]	40000				
c1cc2c(cc1NC1CCCCC1)SC1=NCCN12 [Compound 3]	40000	18 ± 3	120 ± 71	22 ± 2	
CCCC(C)Nc1ccc2c(c1)SC1=NCCN12 (stereo not shown) [Compound 12]	40000	29 ± 14	370 ± 169	24 ± 1	
Cc1cc(NC2CCCC2)c(C(C)C)c2c1N1CCN=C1S2 [Compound 18]		25 ± 14	126	19 ± 1	
c1cc2c(cc1NC1CCCC1)SC1=NCCN12 [Compound 4]	40000	29 ± 7	177 ± 59	18 ± 2	
CCCCC(C)Nc1ccc2c(c1)SC1=NCCN12 (stereo not shown) [Compound 13]	8000	10 ± 5	45	19 ± 1	
CC(C)(C)CNc1ccc2c(c1)SC1=NCCN12 [Compound 14]	8000				
N[C@@H](CCC(=O)O)C(=O)O [Glutamate, glutamate, reference compound]					cytotoxicity at 10000 µM (C6 glioma cells [2]; 48 h, read-out: LDH release, % of total): 78 ± 7%; cytotoxicity at 10000 µM (C6 glioma cells [2]; read-out: cell death): ~78%; GSH level (C6 glioma cells [5]; glutamate 10 mM alone): 277 ± 24 pmol/well; GSH level (C6 glioma cells [5]; glutamate 10 mM alone, listed as glutamate): 277 pmol/well; reduction in intracellular GSH level versus control (C6 glioma cells [5]; glutamate 10 mM, 6~7 hr): ~3 fold; increase in toxic intracellular peroxides (C6 glioma cells [4]; glutamate 10 mM): ~3 fold; Intracellular peroxides (C6 glioma cells [4]): 205 ± 35 rfu/μg protein; Intracellular peroxides (C6 glioma cells [4]; listed as glutamate): 205 rfu/μg protein
CCCCNc1ccc2c(c1)SC1=NCCN12 [Compound 10]	200000				
c1cc2c(cc1NC1C3CC4CC(C3)CC1C4)SC1=NCCN12 (stereo not shown) [Compound 17]		12 ± 2	47 ± 19	19 ± 1	
CNc1ccc2c(c1)SC1=NCCN12 [Compound 2]	200000				
CCCN(CCC)c1ccc2c(c1)SC1=NCCN12 [Compound 15]	40000				
CCC(C)Nc1ccc2c(c1)SC1=NCCN12 (stereo not shown) [Compound 11]	40000		224		
CCC(CC)Nc1ccc2c(c1)SC1=NCCN12 [Compound 9]	40000				
CCCCCCNc1ccc2c(c1)SC1=NCCN12 [Compound 16, N-hexyl-2,3-dihydro-imidazo[2,1-b]benzothiazol-7-amine]	1600	5 ± 1	41 ± 18	21 ± 1	
c1cc2c(cc1NC1CCCCCC1)SC1=NCCN12 [Compound 7, N-cycloheptyl-2,3dihydro-imidazo[2,1-b]benzothiazol-7-amine]	320	9	25 ± 12		plasma levels upon reiterated or chronic administration (Plasma levels; reiterated or chronic administration, in words): progressively increase until a steady state is reached; period of effective plasma levels (Plasma levels; two doses (b.i.d.)): 24 h; protection from cell death (C6 glioma cells [2]; 1 μM, glutamate 10 mM, in words): fully protected; complete rescue of primary neuronal cultures grown in VitE depleted medium (concentration) ([3]; VitE depleted medium): 10^-7 M; potency rank in vitE depletion test ([3]; in words): the most potent compound; antioxidative activity relative to vitE ([3]; vitE depletion test, estimated): about 100 times more potent than vitE; GSH level relative to solvent control (C6 glioma cells [5]; 1 μM compound + glutamate 10 mM, in words): about one third of the solvent control level; GSH level (C6 glioma cells [5]; 1 μM compound + glutamate 10 mM): 242 ± 54 pmol/well; IC50 (C6 glioma cells [4]; individual values of 2 experiments, read-out: Inhibition of intracellular peroxides IC50): 28 nM and 71 nM
C[C@]12N[C@H](Cc3ccccc31)c1ccccc12 [MK801, reference compound]					prevention of LDH release (C6 glioma cells [2]; NMDA antagonist, data not shown, in words): not prevented
CCNc1ccc2c(c1)SC1=NCCN12 [Compound 8]	200000				
CN(C)c1ccc2c(c1)SC1=NCCN12 [Compound 6]	40000				
CCCNc1ccc2c(c1)SC1=NCCN12 [Compound 1]	40000				
